Values joined by “and” are separate entries in the source; they are usually repeats but may differ in a detail not shown here. Equal values may be shown once.
Columns and labels:
LuxP = molecular target: LuxP; set-up: method as in PMID 18215018; settings: established receptor LuxP; cited from earlier work
PctA-LBD Y121A = molecular target: T1, PctA-LBD Y121A (Pseudomonas aeruginosa, UniProt G3XD24, Y121A); assay: biochemical; format: binding; settings: PctA-LBD Y121A 70 μM; DPD/AI-2 700 μM
T1 construct: Amino acids 30-278 and 36-360 of PctA and TlpQ, respectively; His6 (N, cleaved yes); made in house; host or cells: E. coli BL21(DE3) (pET-28a derivative)
T1 sequence (G3XD24 30-278 Y121A): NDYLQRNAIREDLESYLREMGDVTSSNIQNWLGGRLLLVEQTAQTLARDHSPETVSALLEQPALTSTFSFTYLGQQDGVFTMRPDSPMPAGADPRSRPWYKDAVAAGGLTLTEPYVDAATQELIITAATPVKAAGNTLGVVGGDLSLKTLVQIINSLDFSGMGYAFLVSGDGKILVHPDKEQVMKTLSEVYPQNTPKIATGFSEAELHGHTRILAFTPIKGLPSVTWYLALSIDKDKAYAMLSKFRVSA

P. aeruginosa PAO1 = assay: quantitative capillary chemotaxis assay
rpHK1S-Z16 = assay: in vitro DGC activity assay, c-di-GMP synthesis (HPLC); format: biochemical, R. palustris; settings: 100 μM GTP, 30 °C
Experimental: The DGC activity of rpHK1S-Z16 was determined by measuring the synthesis of c-di-GMP using an HPLC-based method. […] The reaction was initiated by adding 100 μM GTP and the reaction was allowed to proceed for 0, 30 and 60 min at 30 °C. At indicated time points, 50 μl aliquots were removed and heated at 100 °C for 5 min. Denatured proteins were removed through centrifugation and the supernatants were filtered through a 0.22 μm membrane. Samples were injected into an HPLC (Agilent 1260 infinity II) system equipped with a C18 reversed-phase column and a UV detector. Components were eluted isocratically with 98% A (150 mM Na2HPO4, pH 5.2) and 2% B (acetonitrile) in 15 min at a flow rate of 1 ml min^−1. The detection wavelength was 252 nm. GTP (Sigma, Cat# G8877) and c-di-GMP (Sigma, Cat# SML1228) were run as standards. The levels of synthesized c-di-GMP in the supernatants were determined from the standard curve obtained using known concentrations of c-di-GMP.

PctA-LBD Y101A = molecular target: T2, PctA-LBD Y101A (Pseudomonas aeruginosa, UniProt G3XD24, Y101A); assay: biochemical; format: binding; settings: PctA-LBD Y101A 70 μM; DPD/AI-2 700 μM
T2 construct: Amino acids 30-278 and 36-360 of PctA and TlpQ, respectively; His6 (N, cleaved yes); made in house; host or cells: E. coli BL21(DE3) (pET-28a derivative)
T2 sequence (G3XD24 30-278 Y101A): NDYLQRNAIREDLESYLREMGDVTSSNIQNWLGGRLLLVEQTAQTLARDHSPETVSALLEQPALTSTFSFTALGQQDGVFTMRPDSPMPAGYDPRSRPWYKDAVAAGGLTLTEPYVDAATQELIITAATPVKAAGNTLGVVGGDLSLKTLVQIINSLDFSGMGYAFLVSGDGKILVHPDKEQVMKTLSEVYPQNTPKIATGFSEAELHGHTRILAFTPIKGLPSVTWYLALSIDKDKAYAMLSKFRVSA

PctB-LBDE146D = molecular target: T3, PctB-LBDE146D (Pseudomonas aeruginosa, UniProt Q9HW91, E146D); assay: biochemical; format: binding; settings: 700 μM DPD/AI-2 into 70 μM PctB-LBD E146D
T3 construct: the dCACHE-type LBDs of PctB and PctC; His6 (N, cleaved yes); made in house; host or cells: E. coli BL21(DE3) (pET-28a derivative)
T3 sequence (Q9HW91 32-276 E146D): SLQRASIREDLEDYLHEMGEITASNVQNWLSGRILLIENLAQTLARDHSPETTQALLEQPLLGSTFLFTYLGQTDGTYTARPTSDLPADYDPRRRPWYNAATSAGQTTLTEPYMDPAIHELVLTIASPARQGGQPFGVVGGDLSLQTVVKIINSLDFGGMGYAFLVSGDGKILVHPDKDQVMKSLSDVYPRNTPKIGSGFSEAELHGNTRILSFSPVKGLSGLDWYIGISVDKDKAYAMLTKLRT

PctA = molecular target: T4, PctA (Pseudomonas aeruginosa, UniProt G3XD24); assay: in vitro methylation of PctA by CheR1 (LC-MS/MS); format: biochemical, P. aeruginosa; settings: for Methylation level (%) of PctA at E381: CheR1, 10 μM SAM, 1 h, 30 °C; for Methylation level (%) of PctA, Fig. S5a / Methylation level (%) of PctA, Fig. S5b: site not given (Supplementary Fig. 5: E395 and E614)
T4 construct: the membrane fractions containing full-length PctA, KinD or rpHK1S-Z16 were collected; made in house; host or cells: E. coli HCB721 (pHSe5), membrane fractions
T4 sequence (G3XD24 whole entry): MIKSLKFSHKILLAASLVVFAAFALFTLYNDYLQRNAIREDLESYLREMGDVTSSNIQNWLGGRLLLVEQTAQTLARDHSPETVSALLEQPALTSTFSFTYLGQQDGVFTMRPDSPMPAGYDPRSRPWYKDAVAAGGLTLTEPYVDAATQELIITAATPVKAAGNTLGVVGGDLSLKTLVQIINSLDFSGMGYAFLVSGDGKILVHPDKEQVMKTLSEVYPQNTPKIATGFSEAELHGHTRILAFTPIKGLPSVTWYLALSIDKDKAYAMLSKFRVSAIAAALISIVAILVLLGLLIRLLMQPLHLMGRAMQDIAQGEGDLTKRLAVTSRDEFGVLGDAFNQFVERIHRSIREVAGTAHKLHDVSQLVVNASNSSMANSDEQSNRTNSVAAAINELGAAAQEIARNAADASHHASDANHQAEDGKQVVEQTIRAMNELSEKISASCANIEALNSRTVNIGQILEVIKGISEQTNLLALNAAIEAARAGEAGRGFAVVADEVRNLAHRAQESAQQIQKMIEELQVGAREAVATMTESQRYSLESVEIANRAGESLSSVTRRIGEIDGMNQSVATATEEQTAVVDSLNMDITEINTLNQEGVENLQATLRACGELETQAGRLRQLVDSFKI
Experimental: The reaction was initiated by adding 10 μM SAM and the reaction was allowed to proceed for another 1 h at 30 °C. […] A control experiment was performed with no addition of SAM to check the initial methylation state of PctA. The reaction was stopped by adding 2× SDS-PAGE loading buffer. The reaction products were resolved by SDS-PAGE and stained with Coomassie brilliant blue. The gel bands corresponding to PctA were excised and used for detection and quantification of methylation by nano-LC-MS/MS.
Gel slices excised from SDS-PAGE gels were destained with three washes in 100 μl of 100 mM ammonium bicarbonate in 50% acetonitrile at 37 °C for 15 min. Destained gel pieces were dried in a SpeedVac (Thermo Fisher Scientific) for 15 min. 10 mM DTT in 25 mM ammonium bicarbonate was added to cover the gel pieces and incubated at 56 °C for 1 h. After cooling to room temperature, the supernatant was replaced by 55 mM iodoacetamide in 25 mM ammonium bicarbonate followed by 1 h incubation at room temperature in darkness. Gel slices were washed with 100 μl of 25 mM ammonium bicarbonate for 10 min, and then shrunk in acetonitrile for 10 min. Acetonitrile was removed and the gel slices were dried in a SpeedVac. The dried gel slices were swollen with 20 μl of 12.5 ng µl^−1 Pierce^TM trypsin protease (MS-grade; Thermo Fisher Scientific) in 50 mM ammonium bicarbonate at 4 °C for 1 h. An additional 30 μl of 50 mM ammonium bicarbonate was supplemented, followed by overnight incubation at 37 °C. After digestion, supernatants were transferred to a new tube, and remaining peptides were extracted from the gel slices with 50 μl of 0.1% trifluoroacetic acid at 37 °C for 30 min. Combined extracts for each gel slice were dried in a SpeedVac. The dried peptide samples were resolubilized in 0.1% formic acid and analyzed in C18 reversed-phase column connected to an EASY-nLC 1000 interfaced via a Nanospray Flex ion source to an Orbitrap Fusion Tribrid mass spectrometer (Thermo Fisher Scientific). The LC mobile phase consisted of 0.1% formic acid (v/v) in water (A) and 0.1% formic acid in acetonitrile (B). […] A data-dependent Top 20 method was used with precursor MS1 scan (m/z 350–1550) acquired in the Orbitrap at a resolution of 120,000, followed by Orbitrap HCD-MS/MS and OTHCD-MS/MS of the 20 most abundant multiply charged precursors in the MS1 spectrum. MS2 spectra were acquired at a resolution of 30,000. Methylation on glutamic acid residues of PctA and phosphorylation on histidine residues of KinD were set as variable modifications. Protein identification and quantification were performed using Mascot Daemon version 2.5.1 (Matrix Science, Boston, USA) considering the specific modifications.

For `CC(=O)C(=O)C(O)CO` (stereo not drawn) [DPD/AI-2, 4,5-dihydroxy-2,3-pentanedione], the Kd (LuxP) is listed as 0.16 µM, the Kd (PctA-LBD Y121A) is listed as 23 µM and 22 µM and 19 µM and the Cells per capillary (P. aeruginosa PAO1; 1 μM DPD/AI-2, PAO1, 30 min, buffer capillary subtracted) is listed as 3700 and 4300 and 4700 and 2900 and 5300. The Cells per capillary (P. aeruginosa PAO1; 10 μM DPD/AI-2, PAO1, 30 min, buffer capillary subtracted) was 9900 and 11300 and 14200 and 11400 and 10800, the Cells per capillary (P. aeruginosa PAO1; 100 μM DPD/AI-2, PAO1, 30 min, buffer capillary subtracted) was 30800 and 31500 and 39700 and 42100 and 39200 and the Cells per capillary (P. aeruginosa PAO1; 1000 μM DPD/AI-2, PAO1, 30 min, buffer capillary subtracted) was 23500 and 25700 and 24700 and 27800 and 19800. The “concentration of optimal chemotactic response” value (P. aeruginosa PAO1; P. aeruginosa PAO1, capillary, 30 min) was 100 µM, the Cells per capillary (P. aeruginosa PAO1; strain ΔPA1608, 100 μM DPD/AI-2, Fig. 1d) was 37200 and 36700 and 39700 and 37700 and 35300 and the Cells per capillary (P. aeruginosa PAO1; strain ΔPA1646, 100 μM DPD/AI-2, Fig. 1d) was 37700 and 38800 and 33600 and 35400 and 35300. The Cells per capillary (P. aeruginosa PAO1; strain ΔPA2573, 100 μM DPD/AI-2, Fig. 1d) was 39200 and 34600 and 39900 and 36000 and 39600, the Cells per capillary (P. aeruginosa PAO1; strain ΔPA2652, 100 μM DPD/AI-2, Fig. 1d) was 38500 and 34500 and 34200 and 36900 and 36500 and the Cells per capillary (P. aeruginosa PAO1; strain ΔPA2788, 100 μM DPD/AI-2, Fig. 1d) was 33800 and 38800 and 38900 and 36100 and 38600. The Cells per capillary (P. aeruginosa PAO1; strain ΔPA2867, 100 μM DPD/AI-2, Fig. 1d) was 38500 and 34300 and 34100 and 37600 and 33900, the Cells per capillary (P. aeruginosa PAO1; strain ΔPA2920, 100 μM DPD/AI-2, Fig. 1d) was 36800 and 33100 and 39300 and 35100 and the Cells per capillary (P. aeruginosa PAO1; strain ΔPA4290, 100 μM DPD/AI-2, Fig. 1d) was 35800 and 35100 and 37600 and 35000 and 38600. The Cells per capillary (P. aeruginosa PAO1; strain ΔPA4520, 100 μM DPD/AI-2, Fig. 1d) was 33900 and 37400 and 33500 and 36700, the Cells per capillary (P. aeruginosa PAO1; strain ΔPA4633, 100 μM DPD/AI-2, Fig. 1d) was 35700 and 39100 and the Cells per capillary (P. aeruginosa PAO1; strain Δaer, 100 μM DPD/AI-2, Fig. 1d) was 36600 and 36200 and 39600 and 36400 and 37100. The Cells per capillary (P. aeruginosa PAO1; strain ΔctpH, 100 μM DPD/AI-2, Fig. 1d) was 38900 and 35200 and 37100 and 35400 and 36800, the Cells per capillary (P. aeruginosa PAO1; strain ΔmcpS, 100 μM DPD/AI-2, Fig. 1d) was 36800 and 35200 and 37500 and 35600 and 39600 and the Cells per capillary (P. aeruginosa PAO1; strain ΔpctA, 100 μM DPD/AI-2, Fig. 1d) was 21400 and 23800 and 20800 and 21700 and 21800. For the same compound, the Cells per capillary (P. aeruginosa PAO1; strain ΔpctB, 100 μM DPD/AI-2, Fig. 1d) was 37100 and 39500 and 37300 and 38300 and 35300, the Cells per capillary (P. aeruginosa PAO1; strain ΔpctC, 100 μM DPD/AI-2, Fig. 1d) was 35300 and 37100 and 37200 and 36800 and 35800 and the Cells per capillary (P. aeruginosa PAO1; strain ΔtlpQ, 100 μM DPD/AI-2, Fig. 1d) was 26100 and 28500 and 25300 and 27300 and 24300. For the same compound, the “Concentration of c-di-GMP” value (rpHK1S-Z16; 100 μM DPD/AI-2, 30 min) was 25.52 µM and 26.85 µM and 25.80 µM, the “Concentration of c-di-GMP” value (rpHK1S-Z16; 100 μM DPD/AI-2, 60 min) was 33.20 µM and 34.39 µM and 33.48 µM and the “Concentration of c-di-GMP” value (rpHK1S-Z16; 200 μM DPD/AI-2, 30 min) was 34.46 µM and 32.43 µM and 32.71 µM. The “Concentration of c-di-GMP” value (rpHK1S-Z16; 200 μM DPD/AI-2, 60 min) was 45.28 µM and 43.18 µM and 41.92 µM, the Kd (PctA-LBD Y101A) was 33 µM and 42 µM and 34 µM and the Kd (PctB-LBDE146D) was 0.22 µM and 0.27 µM and 0.23 µM. The “Methylation level (%) of PctA at E381” value (PctA; 100 μM DPD/AI-2) was 47.62% and 40.00%, the “Methylation level (%) of PctA, Fig. S5a” value (PctA; 100 μM DPD/AI-2) was 41.67% and 36.36% and 40.00% and the “Methylation level (%) of PctA, Fig. S5b” value (PctA; 100 μM DPD/AI-2) was 2.78% and 2.86% and 2.41%. The “Methylation level (%) of PctA at E381” value (PctA; 500 μM DPD/AI-2) was 66.67% and 55.56% and 63.16%, the “Methylation level (%) of PctA, Fig. S5a” value (PctA; 500 μM DPD/AI-2) was 39.22% and 37.21% and 34.21% and the “Methylation level (%) of PctA, Fig. S5b” value (PctA; 500 μM DPD/AI-2) was 2.27% and 2.63%.

Source: publication PMC7584622, “Sensing of autoinducer-2 by functionally distinct receptors in prokaryotes” (Nature Communications, 2020)
